Experimental data as given in PMC8760323, “Single-chain tandem macrocyclic peptides as a scaffold for growth factor and cytokine mimetics” (Communications Biology, 2022).

Tests used:
Assay type in all cases: cell-based, human
[1] = test system: Met; assay: SRE reporter assay for HGF activity (Erk-SRE, HEK293 cells); details: N=1; for Normalized Firefly/Renilla: Fig. S6b/c, 420 nM rhHGF
Description: The Met-activating ability of HGF mimetic STaMPtides was evaluated by SRE reporter assay using the SRE reporter vector (QIAGEN, Hilden, Germany) according to the manufacturer’s instructions. Briefly, 1 μL of the SRE reporter vector was mixed with 0.6 μL of Attractene Transfection Reagent (QIAGEN) in 50 μL of Opti-MEM medium (Thermo Fisher Scientific) to form a transfection complex. Next, HEK293 cells at a density of 40,000 cells/well were seeded on 96-well cell culture plates with the transfection complex and incubated overnight in 5% CO2 at 37 °C. The cells were starved with Opti-MEM containing 0.5% FBS, 1% non-essential amino acid solution, and penicillin-streptomycin and incubated at 37 °C for 4 h. Next, the cells were stimulated by rhHGF, purified HGF mimetic STaMPtides, monomeric aMD4dY, or decellularized supernatant overnight in a 5% CO2 incubator at 37 °C. The signal intensity was detected using the dual-luciferase reporter assay system (Promega Corporation) and a Nivo plate reader (PerkinElmer, Inc., Waltham, MA, USA). Reporter activity was calculated as (luminescence intensity of Firefly luciferase)/(luminescence intensity of Renilla luciferase) and normalized by that without a stimulant in order to determine the relative reporter activity.

[2] = test system: BM-hMSCs; assay: Flow cytometry of MSC surface markers; details: for surface marker expression of stimulated BM-hMSCs: 3 days; for CD45 Positive (%) / CD90 Positive (%): flow cytometry, Fig. S11b
Description: The marker expression of BM-hMSCs unstimulated or stimulated using 1.3 nM rhHGF or 32 nM aMD4dY-PA22 for 3 days were analyzed via flow cytometry. Harvested cells were blocked with PBS supplemented with Human TruStain FcX (Biolegend) for 10 min on ice. […] For the isotype controls, 1:10 diluted PE mouse IgG1 k Isotype (Biolegend) and FITC mouse IgG1 k Isotype (Biolegend) were utilized. After washing two times with a cell stain buffer, cells were analyzed using Attune NxT flow cytometer (Thermo Fisher Scientific).

[3] = test system: hPBMCs; assay: Colony-forming assay; details: sheet Fig. 4, Fig. 4b
Description: Next, 1.1 mL of the mixture was seeded in a 6-well cell culture plate and cultured for 13 days in 5% CO2 at 37 °C. At day 13, colony numbers were counted, and images were taken by inverted microscopy and BZ-X fluorescence microscopy.

[4] = test system: BM-hMSCs; assay: Cytokine array of conditioned media; details: 3 days
Description: The conditioned media (supernatant) of BM-hMSCs unstimulated or stimulated with 1.3 nM rhHGF or 32 nM aMD4dY-PA22 for 3 days were filtered using Millex-GV 0.22 µm PVDF membrane filter (Millipore) and analyzed using Human Cytokine Array C5 (Ray Biotech) according to the manufacturer’s instructions. Chemiluminescence was detected using Amersham Imager 600 (Cytiva).

[5] = test system: HuCCT1 cells; assay: Proliferation assay, HuCCT1 cells; details: 5 days, 0.44 nM rhHGF or […] aMD4dY-PA22; for Relative cell growth: normalized by mock
Description: The activity of aMD4dY-PA22 against HuCCT1 cell and BM-hMSC proliferation was evaluated. HuCCT1 cells at a density of 5000 cells/well were seeded on a 24-well cell culture plate with RPMI 1640 medium supplemented with 5% FBS with or without 0.44 nM rhHGF or 6.3 nM aMD4dY-PA22. After 5 days of culture in 5% CO2 at 37 °C, the cells were detached by 0.25% trypsin/ethylenediaminetetraacetic acid (EDTA; Thermo Fisher Scientific) and counted using a Countess automated cell counter (Thermo Fisher Scientific).

[6] = test system: HuCCT1 cells; assay: Scratch assay (wound healing); details: for wound healing compared with no stimulation: 0.41 nM rhHGF or 16 nM aMD4dY-PA22; for Closure rate / Wound closure: 1 to 7 h, 0.41 nM HGF or 16 nM aMD4dY-PA22
Description: HuCCT1 cells at a density of 50,000 cells/well in RPMI 1640 medium supplemented with 10% FBS were added to a 96-well cell culture plate and incubated overnight in 5% CO2 at 37 °C to form cellular monolayers. The centers of the cellular monolayers were scratched with 1000 μL micropipette tips and incubated in RPMI 1640 medium supplemented with 0.5% FBS with or without 0.41 nM HGF or 16 nM aMD4dY-PA22 in 5% CO2 at 37 °C. Images of the cells were captured every hour using BioStudio-T (Nikon, Tokyo, Japan). The average wound healing rate was calculated as [(width of the wound 1 h after scratching) − (width of the wound […])]/6.

[7] = test system: HuCCT1 cells; assay: Branching morphogenesis in collagen gel; details: 7 days; 0.44 nM rhHGF or […] aMD4dY-PA22
Description: HuCCT1 cells at a density of 20,000 cells/well were mixed with 400 μL of ice-cold collagen-containing culture medium (DMEM/Nutrient Mixture F-12, CellMatrix type IA [Nitta Gelatin Inc., Osaka, Japan], 2.2 g/L of sodium bicarbonate, 4.77 g/L of 4-(2-hydroxyethyl)-1-piperazineethanesulfonic acid [HEPES], and 0.005 N sodium hydroxide) and incubated in a 48-well cell culture plate in 5% CO2 at 37 °C for gelation. The cells encapsulated in the collagen gel were cultured with 500 μL of RPMI 1640 medium supplemented with 10% FBS with or without 0.44 nM HGF or 6.3 nM aMD4dY-PA22 in 5% CO2 at 37 °C. The culture medium was changed every 3 days. At day 7, the cells were observed by inverted microscopy.

Substance | surface marker expression of stimulated BM-hMSCs [2] | CD45 Positive (%) ([2]; replicate 1) | CD90 Positive (%) ([2]; replicate 1) | CD45 Positive (%) ([2]; replicate 2) | CD90 Positive (%) ([2]; replicate 2) | Colony number ([3]; N 1) | Colony number ([3]; N 2) | Colony number ([3]; N 3) | Colony number ([3]; N 4) | cytokines and growth factors in conditioned supernatant [4] | proliferation compared to the unstimulated condition [5] | Relative cell growth ([5]; N 1) | Relative cell growth ([5]; N 2) | Relative cell growth ([5]; N 3) | wound healing compared with no stimulation [6] [fold] | Closure rate ([6]; replicate 1) [μm/h] | Wound closure ([6]; replicate 1) [μm] | Closure rate ([6]; replicate 2) [μm/h] | Wound closure ([6]; replicate 2) [μm] | Closure rate ([6]; replicate 3) [μm/h] | other results
rhHGF: recombinant human HGF (R&D Systems) | expressed hMSC positive markers (CD105, CD73, CD90) and no negative markers (CD45, CD34) | 1.409 | 99.927 | 1.405 | 99.878 | 88.8457 | 100.748 | 98.5177 | 94.0632 | to the same extent as unstimulated parental BM-hMSCs | twofold | 2.286 | 2.429 | 2.071 | 1.6 | 88.8457 | 533.074 | 100.748 | 604.487 | 98.5177 | Normalized F/R ([1]; Fig. S6a, 2.008 pM): 0.9952; Normalized F/R ([1]; Fig. S6a, 10.04 pM): 0.9963; Normalized F/R ([1]; Fig. S6a, 50.19 pM): 1.192; Normalized F/R ([1]; Fig. S6a, 250.9 pM): 3.768; Normalized F/R ([1]; Fig. S6a, 1.25471e-9 M): 8.884; Normalized Firefly/Renilla ([1]; dilution 1000): 9.87; Normalized Firefly/Renilla ([1]; dilution 10000): 1.622; Wound closure ([6]; replicate 3): 591.106 μm; Closure rate ([6]; replicate 4): 94.0632 μm/h; Wound closure ([6]; replicate 4): 564.379 μm; branching morphology [7]: showed branched tubular structures
AET - CRQFNRRTHEVWNLDCG - AAPAAPA PAAPAAPA PAAPAA PG - CRQFNRRTHEVWNLDC (bicyclic or more) [aMD4dY-PA22, HGF mimetic STaMPtide, two aMD4dY macrocycles with a 22-amino-acid PA linker, secreted by C. glutamicum] | expressed hMSC positive markers (CD105, CD73, CD90) and no negative markers (CD45, CD34) | 0.665 | 99.857 | 1.718 | 99.76 | 104.419 | 110.38 | 95.5447 | 95.787 | to the same extent as unstimulated parental BM-hMSCs | twofold | 2.429 | 2.429 | 2.571 | 1.8 | 104.419 | 626.514 | 110.38 | 662.279 | 95.5447 | Normalized F/R ([1]; Fig. S6d, supernatant, dilution 10): 4.6947; Normalized F/R ([1]; Fig. S6d, supernatant, dilution 30): 5.172; Normalized F/R ([1]; Fig. S6d, supernatant, dilution 90): 5.6777; Normalized F/R ([1]; Fig. S6d, supernatant, dilution 810): 3.099; Normalized F/R ([1]; Fig. S6d, supernatant, dilution 2430): 1.722; Erk-SRE reporter activity of decellularized supernatants ([1]; rapid screening without purification): highest activity; Wound closure ([6]; replicate 3): 573.268 μm; Closure rate ([6]; replicate 4): 95.787 μm/h; Wound closure ([6]; replicate 4): 574.722 μm; branching morphology [7]: showed branched tubular structures
